# Literature values, collected in patent US8173626B2, “Methods, dosing regimens and medications using anti-progestational agents for the treatment of disorders” (Danco Laboratories LLC, priority 2006, dated 2012).
# Read-outs that look alike come from different tables or passages of the source.
# Experiments:
# [1] = tested on: breakthrough bleeding; details: cited from earlier work; for subjects with irregular or prolonged bleeding: Newton et al.; for days of vaginal bleeding: Tyler et al.
# [2] = target: T1, glucocorticoid receptors (Homo sapiens, UniProt P04150); details: cited from earlier work
# T1 sequence (P04150 1-777): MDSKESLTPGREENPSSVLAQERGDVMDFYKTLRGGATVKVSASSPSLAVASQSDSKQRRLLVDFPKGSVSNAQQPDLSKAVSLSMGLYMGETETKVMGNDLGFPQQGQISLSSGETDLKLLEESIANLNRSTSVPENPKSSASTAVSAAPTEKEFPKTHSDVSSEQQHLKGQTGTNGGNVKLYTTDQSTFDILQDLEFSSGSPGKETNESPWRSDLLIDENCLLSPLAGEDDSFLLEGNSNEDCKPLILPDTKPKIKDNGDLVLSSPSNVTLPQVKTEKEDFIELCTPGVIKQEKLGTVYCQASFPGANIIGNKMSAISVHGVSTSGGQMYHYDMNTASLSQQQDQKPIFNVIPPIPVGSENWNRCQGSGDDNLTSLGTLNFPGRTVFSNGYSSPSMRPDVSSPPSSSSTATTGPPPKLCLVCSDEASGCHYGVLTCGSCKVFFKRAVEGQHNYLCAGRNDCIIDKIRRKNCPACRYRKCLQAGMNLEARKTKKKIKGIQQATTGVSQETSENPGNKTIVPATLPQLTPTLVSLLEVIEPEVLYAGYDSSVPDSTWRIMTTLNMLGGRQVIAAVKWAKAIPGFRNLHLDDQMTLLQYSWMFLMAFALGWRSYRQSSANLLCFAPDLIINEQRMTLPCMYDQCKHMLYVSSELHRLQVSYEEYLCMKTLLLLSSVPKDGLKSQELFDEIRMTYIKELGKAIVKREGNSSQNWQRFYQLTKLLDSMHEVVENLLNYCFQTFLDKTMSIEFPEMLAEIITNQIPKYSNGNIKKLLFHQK
compound,measurement,setting,value
"CC(=O)O[C@]1(C(C)=O)CC[C@H]2[C@@H]3C[C@H](C)C4=CC(=O)CC[C@]4(C)[C@H]3CC[C@@]21C [DMPA, depo-medroxyprogesterone acetate]",subjects with irregular or prolonged bleeding,[1]; 9-12th month of use,34%
same,days of vaginal bleeding,[1]; between the first and second injection,around 30 % of days
same,days of vaginal bleeding,[1]; between the second and third injection,~20 % of days
same,subjects with irregular or prolonged bleeding,[1]; first 3 months of DMPA,90%
same,discontinuation rate due to breakthrough bleeding,"[1]; first year of use, Toppozada et al.",≤ 40%
"C[C@@H]1C[C@@H]2C(=C3CCC(=O)C=C31)[C@@H](c1ccc(N(C)C)cc1)C[C@@]1(C)[C@H]2CC[C@@]12CCCO2 [Org 31710, (6α,11β,17β)-11-(4-NMe2-phenyl)-6-Me-4′,5′-dihydrospiro[oestra-4,9-diene-17,2(3′H)-furan]-3-one]",activity against glucocorticoid receptors,[2],substantially inactive
"C[C@H]1CC2=CC(=O)CCC2=C2[C@@H]1[C@@H]1CC[C@@]3(CCCO3)[C@@]1(C)C[C@@H]2c1ccc(N(C)C)cc1 [Org 31806, (7β,11β,17β)-11-(4-NMe2-phenyl)-7-Me-4′,5′-dihydrospiro(oestra-4,9-diene-17,2′(3′H)-furan)-3-one]",activity against glucocorticoid receptors,[2],substantially inactive
CC(=O)c1ccc([C@H]2C[C@@]3(C)[C@@H](CC[C@@]3(O)C(F)(F)C(F)(F)F)[C@@H]3CCC4=CC(=O)CCC4=C32)cc1 [ZK230211],activity against glucocorticoid receptors,[2],substantially inactive
"(11β,17α)-(4-acetylphenyl)-17,23-epoxy-19,24-dinorchola-4,9,20-trien-3-one [Org 33628]",activity against glucocorticoid receptors,[2],substantially inactive
